Experimental data published in ChEMBL document CHEMBL1144238, “Identification and SAR around N-{2-[4-(2,3-dihydro-benzo[1,4]dioxin-2-ylmethyl)-[1,4]diazepan-1-yl]-ethyl}-2-phenoxy-nicotinamide, a selective alpha2C adrenergic receptor antagonist” (Bioorg Med Chem Lett, 2008).

Tests used:
[1] = target: T1, Alpha-2A adrenergic receptor (Homo sapiens, UniProt P08913); assay: Binding affinity at human recombinant adrenergic alpha2A receptor expressed in CHO cells by radioligand binding assay; type: cell-based
T1 sequence (P08913 whole entry): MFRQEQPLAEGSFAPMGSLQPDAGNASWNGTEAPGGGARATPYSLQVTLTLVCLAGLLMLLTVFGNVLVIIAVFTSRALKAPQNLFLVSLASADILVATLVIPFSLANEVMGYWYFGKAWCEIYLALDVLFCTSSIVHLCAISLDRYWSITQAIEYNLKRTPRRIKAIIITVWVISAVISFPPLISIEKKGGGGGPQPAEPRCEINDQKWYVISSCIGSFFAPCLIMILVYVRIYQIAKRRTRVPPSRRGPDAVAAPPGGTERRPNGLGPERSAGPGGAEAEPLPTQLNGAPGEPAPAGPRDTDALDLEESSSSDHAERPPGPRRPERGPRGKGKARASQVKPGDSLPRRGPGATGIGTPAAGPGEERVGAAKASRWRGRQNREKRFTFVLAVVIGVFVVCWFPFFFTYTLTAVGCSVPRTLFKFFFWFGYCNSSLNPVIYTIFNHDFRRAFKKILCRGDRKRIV

[2] = target: T2, Alpha-2C adrenergic receptor (Homo sapiens, UniProt P18825); assay: Antagonist activity at human recombinant adrenergic Alpha-2C receptor expressed in CHO cells assessed as inhibition of NE-induced calcium mobilization by FLIPR; type: functional, cell-based
T2 sequence (P18825 whole entry): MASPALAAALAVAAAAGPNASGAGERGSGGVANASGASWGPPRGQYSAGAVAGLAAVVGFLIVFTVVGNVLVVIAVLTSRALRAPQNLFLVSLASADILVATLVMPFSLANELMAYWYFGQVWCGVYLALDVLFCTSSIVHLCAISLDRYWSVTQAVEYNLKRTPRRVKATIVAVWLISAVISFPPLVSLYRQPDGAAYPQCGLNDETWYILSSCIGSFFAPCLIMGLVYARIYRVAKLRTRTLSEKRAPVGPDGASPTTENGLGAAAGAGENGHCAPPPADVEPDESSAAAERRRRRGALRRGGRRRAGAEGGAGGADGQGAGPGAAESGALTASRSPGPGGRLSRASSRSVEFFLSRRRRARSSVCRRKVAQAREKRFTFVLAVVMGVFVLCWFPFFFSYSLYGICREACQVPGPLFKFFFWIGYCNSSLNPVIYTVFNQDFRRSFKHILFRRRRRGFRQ

[3] = target: T2, Alpha-2C adrenergic receptor; assay: Binding affinity at human recombinant adrenergic Alpha-2C receptor expressed in CHO cells by radioligand binding assay; type: cell-based
[4] = target: T3, Alpha-2B adrenergic receptor (Homo sapiens, UniProt P18089); assay: Antagonist activity at human recombinant adrenergic alpha2B receptor expressed in CHO cells assessed as inhibition of NE-induced calcium mobilization by FLIPR; type: functional, cell-based
T3 sequence (P18089 whole entry): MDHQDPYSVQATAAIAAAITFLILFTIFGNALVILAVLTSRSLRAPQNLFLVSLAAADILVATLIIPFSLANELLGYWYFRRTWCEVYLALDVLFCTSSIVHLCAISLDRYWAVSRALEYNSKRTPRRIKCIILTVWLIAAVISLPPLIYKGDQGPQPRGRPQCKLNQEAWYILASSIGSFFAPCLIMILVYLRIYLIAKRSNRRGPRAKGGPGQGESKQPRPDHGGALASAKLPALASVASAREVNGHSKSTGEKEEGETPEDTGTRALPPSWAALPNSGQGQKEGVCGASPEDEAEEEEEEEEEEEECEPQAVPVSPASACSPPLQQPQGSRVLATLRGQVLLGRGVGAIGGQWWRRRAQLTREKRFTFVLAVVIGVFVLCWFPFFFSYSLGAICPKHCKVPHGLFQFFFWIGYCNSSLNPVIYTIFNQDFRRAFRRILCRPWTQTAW

[5] = target: T3, Alpha-2B adrenergic receptor; assay: Binding affinity at human recombinant adrenergic alpha2B receptor expressed in CHO cells by radioligand binding assay; type: cell-based
[6] = target: T1, Alpha-2A adrenergic receptor; assay: Antagonist activity at human recombinant adrenergic alpha2A receptor expressed in CHO cells assessed as inhibition of NE-induced calcium mobilization by FLIPR; type: functional, cell-based
Homo sapiens [7] = species: Homo sapiens; assay: Selectivity for human recombinant adrenergic Alpha-2C receptor over human recombinant adrenergic alpha2B receptor by radioligand binding assay
Homo sapiens [8] = species: Homo sapiens; assay: Selectivity human recombinant adrenergic Alpha-2C receptor over human recombinant adrenergic alpha2B receptor by FLIPR
Homo sapiens [9] = species: Homo sapiens; assay: Selectivity human recombinant adrenergic Alpha-2C receptor over human recombinant adrenergic alpha2A receptor by FLIPR
Homo sapiens [10] = species: Homo sapiens; assay: Selectivity for human recombinant adrenergic Alpha-2C receptor over human recombinant adrenergic alpha2A receptor by radioligand binding assay

SMILES	Ki [1]	Ki [2]	Ki [3]	Ki [4]	Ki [5]	Ki [6]	Ratio Ki (Homo sapiens [7])	Ratio Ki (Homo sapiens [8])	Ratio Ki (Homo sapiens [9])	Ratio Ki (Homo sapiens [10])
COc1ccccc1N1CCN(CC2COc3ccccc3O2)CC1 (stereo not drawn)	0.506 µM	0.023 µM	0.033 µM	0.017 µM	0.194 µM	0.167 µM	6	1	7	15
c1ccc(CN2CCN(CC3COc4ccccc4C3)CC2)cc1 (stereo not drawn)	> 0.5 µM	–	> 0.5 µM	–	> 0.5 µM	–	–	–	–	–
O=C(NCCN1CCCN(CC2COc3ccccc3O2)CC1)c1cccnc1 (stereo not drawn)	0.443 µM	–	0.0157 µM	–	0.0179 µM	–	1	–	–	28

The next molecules have a lower Ki [1] than those just listed; values first:

Ki [1]	Ki [2]	Ki [3]	Ki [4]	Ki [5]	Ki [6]	Ratio Ki (Homo sapiens [7])	Ratio Ki (Homo sapiens [8])	Ratio Ki (Homo sapiens [9])	Ratio Ki (Homo sapiens [10])	SMILES
0.0661 µM	0.0068 µM	0.0025 µM	0.132 µM	0.0695 µM	0.275 µM	28	19	41	26	c1ccc(Oc2ncccc2COCCN2CCCN(CC3COc4ccccc4O3)CC2)cc1 (stereo not drawn)
0.081 µM	0.0048 µM	0.0008 µM	0.0133 µM	0.0105 µM	0.0736 µM	13	3	15	103	CCCCOc1ncccc1C(=O)NCCN1CCCN(CC2COc3ccccc3O2)CC1 (stereo not drawn)
0.0448 µM	0.0017 µM	0.0019 µM	0.0052 µM	0.0153 µM	0.0154 µM	8	3	9	23	c1ccc(Oc2ncccc2-c2noc(CN3CCCN(CC4COc5ccccc5O4)CC3)n2)cc1 (stereo not drawn)
0.208 µM	0.0019 µM	0.0008 µM	0.0275 µM	0.036 µM	0.501 µM	48	14	262	275	N#Cc1cccc(Oc2ncccc2C(=O)NCCN2CCCN(CC3COc4ccccc4O3)CC2)c1 (stereo not drawn)
